Tests used:
[1] = target: T1, Recombinant human Cbl-b (aa 36-427) (Homo sapiens, UniProt Q13191); assay: Cbl-b Biochemical Assay (TR-FRET); settings: 6 nM Cbl-b, 1-2.5 nM Src-Zap70, 0.5 mM ATP; HTRF signal at 520 nm
T1 construct: Recombinant human Cbl-b (aa 36-427) was expressed in E coli; biotin (biotinylated in vitro); made in house; host or cells: E. coli
Procedure: Cbl-b Biochemical Assay (TR-FRET)
Recombinant human Cbl-b (aa 36-427) was expressed in E coli, purified and biotinylated in vitro. The protein was diluted to 12 nM in freshly prepared assay buffer consisting of 50 mM HEPES, pH 7.0, 100 mM NaCl, 5 mM MgCl2, 0.01% Triton-X 100, 0.01% BSA and 1 mM DTT. Recombinant human Src (aa 254-536)-GSSGSS-Zap-70 (aa 281-297) fusion protein was expressed in E coli and purified. Protein was diluted in assay buffer to 2-5 nM and supplemented with ATP to 1 mM. Fluorescein-BODIPY labeled UBED2D(C85K)-Ub was prepared by conjugating ubiquitin (Ub) labeled at its N-terminus with Fluorescein-BODIPY maleimide (ThermoFisher Catalog no B10250) to E coli expressed and purified UBED2D(C85K) [see Dou et al Nature Structural and Molecular Biology 8: 982-987, 2013]. Recombinant human UBE2D2(C85K) was expressed in E coli, purified and ubiquitinated and Bodipy labelled in vitro. Protein was diluted to 200 nM in assay buffer without MgCl2 (or Cisbio PPI buffer). Streptavidin-Terbium was added to 2 nM and EDTA to 10 mM, to provide a binding assay mix. Compounds were dissolved in DMSO and diluted to prepare a ten-point dilution series. 100 nl of each compound concentration was dispensed in duplicate in a 384 well black assay plate using acoustic dispensing. Wells for maximum signal controls received 100 nl of DMSO only and wells for minimum signal controls received 100 nl of a reference inhibitor compound at a final assay concentration of 100 mM to produce 100% inhibition. 5 μl of diluted Cbl-b enzyme was added to all wells of the assay plate and incubated at RT for 30-60 min. The enzyme assay was initiated by addition of 5 μl of Src-Zap/ATP mix to all wells, and the plate incubated at RT for 60 min. The enzyme reaction was terminated and the binding reaction was initiated by adding 10p of binding assay mix to all wells and incubating the plate at RT for 60 min prior to assay read. Final assay conditions consisted of 6 nM Cbl-b, 1-2.5 nM Src-Zap70, 0.5 mM ATP, 1% (v/v) DMSO (enzyme reaction) and 100 nM UBE2D2(C85K)-Ub-FL-BODIPY, 5 mM EDTA, 1 nM Streptavidin-Tb (binding reaction). The HTRF assay signal was measured at 520 nm on an Envision plate reader, with reference signal at 485 or 620 nm. Data was normalized using maximum and minimum assay controls: % Inhibition=100−(100*((maximum control)−unknown)/(maximum control−minimum control)). A 4-parameter dose-response equation was used to fit the normalized dose-response data and derive an IC50 for test compounds.

[2] = test system: Recombinant human c-Cbl (aa 47-435); assay: c-Cbl Biochemical Assay (TR-FRET); settings: ratio from the Cbl-b and c-Cbl TR-FRET biochemical assays
Procedure: c-Cbl Biochemical Assay (TR-FRET)
Recombinant human c-Cbl (aa 47-435) was expressed in E coli, purified and biotinylated in vitro. The protein was diluted to 12 nM in freshly prepared assay buffer consisting of 50 mM HEPES, pH 7.0, 100 mM NaCl, 5 mM MgCl2, 0.01% Triton-X 100, 0.01% BSA and 1 mM DTT. Recombinant human Src (aa 254-536)-GSSGSS-Zap-70 (aa 281-297) fusion protein was expressed in E coli and purified. Protein was diluted in assay buffer to 5-20 nM and ATP was added to 1 mM. Recombinant human UBE2D2(C85K) was expressed in E coli, purified and ubiquitinated and Bodipy labelled in vitro. Protein was diluted to 200 nM in assay buffer without MgCl2 (or Cisbio PPI buffer). Streptavidin-Terbium was added to 2 nM and EDTA to 10 mM, to provide a binding assay mix. Compounds were dissolved in DMSO and diluted to prepare a ten-point half log dilution series. 100 nl of each compound concentration was dispensed in duplicate in a 384 well black assay plate using acoustic dispensing. Wells for maximum signal controls received 100 nl of DMSO only and wells for minimum controls received 100 nl of a reference inhibitor compound at a final assay concentration of 100 mM to produce 100% inhibition. 5 μl of diluted c-Cbl enzyme was added to all wells of the assay plate and incubated at RT for 30 min. The enzyme assay was initiated by addition of 5 d of Src-Zap/ATP mix to all wells, and the plate incubated at RT for 60-90 min. The enzyme reaction was terminated and the binding reaction was initiated by adding 10p of binding assay mix to all wells and incubating the plate at RT for 60 min prior to assay read. Final assay conditions consisted of 6 nM c-Cbl. 2.5-10 nM Src-Zap70, 0.5 mM ATP. 1% (v/v) DMSO (enzyme reaction) and 100 nM UBE2D2(C85K)-Ub-FL-BODIPY, 5 mM EDTA, 1 nM Streptavidin-Tb (binding reaction). The HTRF assay signal was measured at 520 nm on an Envision plate reader, with reference signal at 485 or 620 nm. Data was normalized using maximum and minimum assay controls: % Inhibition=100−(100*((maximum control)−unknown)/(maximum control−minimum control)). A 4-parameter dose-response equation was used to fit the normalized dose-response data and derive an IC50 for test compounds.

T1 sequence (Q13191 36-427): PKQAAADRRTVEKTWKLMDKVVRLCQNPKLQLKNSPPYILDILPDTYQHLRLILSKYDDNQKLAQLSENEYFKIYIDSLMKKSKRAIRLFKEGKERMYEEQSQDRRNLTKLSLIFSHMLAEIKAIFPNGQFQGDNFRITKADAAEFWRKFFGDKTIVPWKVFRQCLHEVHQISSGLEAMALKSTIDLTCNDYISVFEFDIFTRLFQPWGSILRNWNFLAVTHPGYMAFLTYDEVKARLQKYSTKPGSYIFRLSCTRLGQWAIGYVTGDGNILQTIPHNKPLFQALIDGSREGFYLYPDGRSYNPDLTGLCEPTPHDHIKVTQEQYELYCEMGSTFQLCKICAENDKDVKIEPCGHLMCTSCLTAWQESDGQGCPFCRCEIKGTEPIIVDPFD

SMILES	IC50 [1] [µM]	Cbl-b/c-Cbl Selectivity [2]
Cn1cnnc1-c1ccc(C(F)(F)F)cc1-c1cc(NCCCC#N)nc(-c2nc3cc(CNCC4CC4)cc(C(F)(F)F)c3o2)c1 [I-54, 4-{[6-(5-{[(cyclopropylmethyl)amino]methyl}-7-(trifluoromethyl)-1,3-benzoxazol-2-yl)-4-[2-(4-methyl-1,2,4-triazol-3-yl)-5-(trifluoromethyl)phenyl]pyridin-2-yl]amino}butanenitrile; formic acid]	> 5	7
Cn1cnnc1-c1ccccc1-c1cc(NCCCC#N)nc(-c2nc3cc(CNCC(C)(C)O)cc(C(F)(F)F)c3o2)c1 [I-55, 4-((6-(5-(((2-Hydroxy-2-methylpropyl)amino)methyl)-7-(trifluoromethyl)benzo[d]oxazol-2-yl)-4-(2-(4-methyl-4H-1,2,4-triazol-3-yl)phenyl)pyridin-2-yl)amino)butanenitrile]	< 0.2	11
C[C@H]1CCCN(Cc2cc(C(F)(F)F)c3oc(-c4cccc([C@@H](c5nncn5C)[C@H]5C[C@@H](C(F)(F)F)C5)c4)nc3c2)C1 [I-56]	> 5	5
C[C@H]1CCCN(Cc2cc(C(F)(F)F)c3oc(-c4cccc([C@H](c5nncn5C)[C@H]5C[C@H](C(F)(F)F)C5)c4)nc3c2)C1 [I-57]	> 5	2
C[C@H]1CCCN(Cc2cc(C(F)(F)F)c3oc(-c4cccc([C@@H](c5nncn5C)[C@H]5C[C@H](C(F)(F)F)C5)c4)nc3c2)C1 [I-58]	> 5	4
Cn1cnnc1[C@H](c1cccc(-c2nc3cc(CN4CCC5(CCC5)C4)cc(C(F)(F)F)c3o2)c1)[C@H]1C[C@@H](C(F)(F)F)C1 [I-60]	> 5	1
Cn1cnnc1[C@H](c1cccc(-c2nc3cc(CN4CCC5(CCC5)C4)cc(C(F)(F)F)c3o2)c1)[C@H]1C[C@H](C(F)(F)F)C1 [I-62]	> 5	2
Cn1cnnc1[C@@H](c1cccc(-c2nc3cc(CN4CCC5(CCC5)C4)cc(C(F)(F)F)c3o2)c1)[C@H]1C[C@@H](C(F)(F)F)C1 [I-63]	0.2 to 5	13
